Assay results taken from ChEMBL document CHEMBL4406871, “Novel berberine-based derivatives with potent hypoglycemic activity” (Bioorg Med Chem Lett, 2019).
The source made the active and inactive calls. The rule behind the calls is not given here.

Assays:
HepG2 [1] = experiment: Increase in glucose consumption in human HepG2 cells assessed as glucose content in medium at 10^-6 M measured after 24 hrs by glucose oxidase method relative to control; type: functional
[2] = Oral bioavailability in rat; type: ADME, organism-based; conditions: in vivo
HepG2 [3] = experiment: Increase in glucose consumption in human HepG2 cells assessed as glucose content in medium at 10^-6 M measured after 24 hrs by glucose oxidase method relative to metformin; type: functional
HepG2 [4] = experiment: Increase in glucose consumption in human HepG2 cells assessed as glucose content in medium at 10^-6 M measured after 24 hrs by glucose oxidase method relative to rosiglitazone; type: functional
HepG2 [5] = experiment: Activation of AMPKalpha in human HepG2 cells assessed as induction of AMPKalpha phosphorylation at Thr172 residue at 10 uM by Western blot analysis; type: cell-based
[6] = biological target: AMP-activated protein kinase, AMPK (Homo sapiens) (UniProt P54646+O43741+P54619+Q9UGJ0+Q9Y478+Q13131+Q9UGI9); experiment: Activation of AMPK in human HepG2 cells assessed as induction of ACC phosphorylation at Ser79 residue at 10 uM by Western blot analysis; type: cell-based
[7] = biological target: T1, Peroxisome proliferator-activated receptor gamma (Homo sapiens, UniProt P37231); experiment: Transactivation of human PPARgamma transfected in U2OS cells co-tranfected with human RXR measured after 24 hrs by luciferase reporter assay; type: cell-based
T1 sequence (P37231 whole entry): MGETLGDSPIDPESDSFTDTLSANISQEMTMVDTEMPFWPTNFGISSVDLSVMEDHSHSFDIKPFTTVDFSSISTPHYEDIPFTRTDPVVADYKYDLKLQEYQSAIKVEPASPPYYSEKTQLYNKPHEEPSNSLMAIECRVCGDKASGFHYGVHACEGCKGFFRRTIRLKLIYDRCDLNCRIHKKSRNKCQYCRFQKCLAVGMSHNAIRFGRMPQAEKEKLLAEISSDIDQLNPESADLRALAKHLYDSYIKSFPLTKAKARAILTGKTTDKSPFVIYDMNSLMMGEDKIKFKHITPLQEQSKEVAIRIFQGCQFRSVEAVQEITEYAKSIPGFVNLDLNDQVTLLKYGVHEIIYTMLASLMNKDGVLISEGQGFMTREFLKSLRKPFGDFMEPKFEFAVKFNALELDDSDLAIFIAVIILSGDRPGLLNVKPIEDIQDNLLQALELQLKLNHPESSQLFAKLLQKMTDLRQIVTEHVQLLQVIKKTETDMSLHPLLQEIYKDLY

HepG2 [8] = experiment: Increase in glucose consumption in human HepG2 cells assessed as glucose content in medium at 10^-6 M measured after 24 hrs by glucose oxidase method relative to berberine; type: functional
[9] = biological target: AMP-activated protein kinase (AMPK) alpha-1/beta-1/gamma-1 (Homo sapiens) (UniProt P54619+Q9Y478+Q13131); experiment: Agonist activity at AMPKalpha1beta1gamma1 (unknown origin); type: protein-complex assay
AMP-activated protein kinase (AMPK) alpha-1/beta-1/gamma-1 (Homo sapiens), sequence (P54619 whole entry): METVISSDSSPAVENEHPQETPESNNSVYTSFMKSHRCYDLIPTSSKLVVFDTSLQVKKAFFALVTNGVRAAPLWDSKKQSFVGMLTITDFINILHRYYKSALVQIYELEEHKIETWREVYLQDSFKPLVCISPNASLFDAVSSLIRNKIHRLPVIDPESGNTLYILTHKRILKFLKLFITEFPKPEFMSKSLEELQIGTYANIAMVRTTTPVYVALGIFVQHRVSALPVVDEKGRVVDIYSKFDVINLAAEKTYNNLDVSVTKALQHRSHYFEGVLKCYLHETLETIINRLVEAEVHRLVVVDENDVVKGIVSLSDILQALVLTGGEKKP
AMP-activated protein kinase (AMPK) alpha-1/beta-1/gamma-1 (Homo sapiens), sequence (Q13131 whole entry partner): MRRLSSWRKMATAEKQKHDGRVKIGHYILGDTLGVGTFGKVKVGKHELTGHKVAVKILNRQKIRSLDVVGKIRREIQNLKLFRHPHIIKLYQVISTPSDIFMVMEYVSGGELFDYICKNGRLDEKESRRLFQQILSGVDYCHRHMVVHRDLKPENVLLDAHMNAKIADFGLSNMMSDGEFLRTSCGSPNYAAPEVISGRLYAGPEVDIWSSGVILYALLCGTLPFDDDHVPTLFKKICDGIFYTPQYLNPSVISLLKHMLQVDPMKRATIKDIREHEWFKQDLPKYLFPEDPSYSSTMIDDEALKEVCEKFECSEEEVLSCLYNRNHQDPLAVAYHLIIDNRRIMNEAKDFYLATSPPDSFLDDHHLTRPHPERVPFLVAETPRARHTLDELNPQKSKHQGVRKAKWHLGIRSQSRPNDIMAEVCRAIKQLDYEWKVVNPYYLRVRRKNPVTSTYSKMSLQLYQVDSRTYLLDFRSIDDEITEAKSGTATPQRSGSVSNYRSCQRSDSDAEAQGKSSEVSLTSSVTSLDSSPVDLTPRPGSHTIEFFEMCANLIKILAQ
AMP-activated protein kinase (AMPK) alpha-1/beta-1/gamma-1 (Homo sapiens), sequence (Q9Y478 2-270 partner limits assumed): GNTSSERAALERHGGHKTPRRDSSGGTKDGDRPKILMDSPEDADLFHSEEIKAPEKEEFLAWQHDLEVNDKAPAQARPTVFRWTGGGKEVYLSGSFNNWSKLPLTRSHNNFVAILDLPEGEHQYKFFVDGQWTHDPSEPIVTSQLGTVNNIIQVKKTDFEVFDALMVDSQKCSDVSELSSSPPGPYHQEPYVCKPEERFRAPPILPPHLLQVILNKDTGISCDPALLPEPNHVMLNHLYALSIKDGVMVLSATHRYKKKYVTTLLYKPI

| SMILES | Activity (HepG2 [1]) [%] | also measured |
| --- | --- | --- |
| COc1ccc(OC)c2c[n+]3c(cc12)-c1cc2c(cc1CC3CC(=O)O)OCO2.[Cl-] (stereo unspecified) | 9.44 | – |
| COc1cc2c[n+]3c(cc2c(OC)c1OC)-c1cc2c(cc1CC3C(=O)O)OCO2.[Cl-] (stereo unspecified) | 9.1 | – |
| COc1ccc2c(c1OC)C[N+]1(CCCCCC(=O)O)CCc3cc4c(cc3C1C2)OCO4.[Cl-] (stereo unspecified) | 15.78 | – |
| COc1ccc2c(c1OC)C[N+]1(Cc3ccc(C(=O)O)cc3)CCc3cc4c(cc3C1C2)OCO4.[Cl-] (stereo unspecified) | 12.11 | – |
| COc1ccc2cc3[n+](cc2c1OC)CCc1cc2c(cc1-3)OCO2.[Cl-] [BERBERINE CHLORIDE] | 5.16 | bioavailability [2]: < 1% |
| COc1cc2c(c(OC)c1)CC1c3cc4c(cc3CC(C(=O)O)N1C2)OCO4 (stereo unspecified) | 9.65 | – |
| COc1ccc2c(c1OC)CN1C(C(=O)O)Cc3cc4c(cc3C1C2)OCO4 (stereo unspecified) | 6.39 | – |
| COc1cc(OC)c2cc3[n+](cc2c1)C(C(=O)O)Cc1cc2c(cc1-3)OCO2.[Cl-] (stereo unspecified) | 8.62 | – |
| COc1cc2cc3[n+](cc2cc1OC)C(CC(=O)O)Cc1cc2c(cc1-3)OCO2.[Cl-] (stereo unspecified) | 15.31 | – |
| COc1ccc2c(c1OC)C[N+]1(CCCC(=O)O)CCc3cc4c(cc3C1C2)OCO4.[Cl-] (stereo unspecified) | 16 | fold change (FC) (HepG2 [3]): 1.32; fold change (FC) (HepG2 [4]): 1.15 |
| COc1cc(OC)c2cc3[n+](cc2c1)C(CC(=O)O)Cc1cc2c(cc1-3)OCO2.[Cl-] (stereo unspecified) | 9.02 | – |
| COc1ccc2c(c1OC)C[N+]1(CCCCC(=O)O)CCc3cc4c(cc3C1C2)OCO4.[Cl-] (stereo unspecified) | 14.52 | – |
| COc1cc2cc3[n+](cc2cc1OC)C(C(=O)O)Cc1cc2c(cc1-3)OCO2.[Cl-] (stereo unspecified) | 6.92 | Activity (HepG2 [5]): Active; Activity [6]: Active; EC50 [7]: > 100 µM |
| COc1ccc(OC)c2c1CC1c3cc4c(cc3CC(C(=O)O)N1C2)OCO4 (stereo unspecified) | 12.43 | – |
| COc1cc2c[n+]3c(cc2c(OC)c1OC)-c1cc2c(cc1CC3CC(=O)O)OCO2.[Cl-] (stereo unspecified) | 10.18 | – |
| COc1ccc(OC)c2c[n+]3c(cc12)-c1cc2c(cc1CC3C(=O)O)OCO2.[Cl-] (stereo unspecified) | 7.44 | – |
| COc1ccc2cc3[n+](cc2c1OC)C(CC(=O)O)Cc1cc2c(cc1-3)OCO2.[Cl-] (stereo unspecified) | 2.8 | – |
| COc1ccc2c(c1OC)CN1C(CC(=O)O)Cc3cc4c(cc3C1C2)OCO4 (stereo unspecified) | 7.16 | – |
| CN(C)C(=N)NC(=N)N [METFORMIN] | 12.07 | – |
| COc1ccc2c(c1OC)C[N+]1(CC(=O)O)CCc3cc4c(cc3C1C2)OCO4.[Cl-] (stereo unspecified) | 15.4 | – |
| COc1ccc2cc3[n+](cc2c1OC)C(C(=O)O)Cc1cc2c(cc1-3)OCO2.[Cl-] (stereo unspecified) | 1.88 | – |
| COc1cc2c(cc1OC)CN1C(C(=O)O)Cc3cc4c(cc3C1C2)OCO4 (stereo unspecified) | 16.76 | Activity (HepG2 [5]): Active; Activity [6]: Active; fold change (FC) (HepG2 [8]): 3.23; fold change (FC) (HepG2 [3]): 1.39; fold change (FC) (HepG2 [4]): 1.2; EC50 [7]: > 100 µM |
| CN(CCOc1ccc(CC2SC(=O)NC2=O)cc1)c1ccccn1 (stereo unspecified) [ROSIGLITAZONE] | 13.87 | – |
| O=C(O)C1CCC2C(C1)c1cc(OCc3ccccc3)ccc1N2C(=O)c1ccc(Cl)cc1 (stereo unspecified) | – | Activity [9]: 362 nM |
